Patent publication US9556165B2 (priority 2012, dated 2017)
Converted amounts (≈) assume the structure as drawn. Read-outs that look alike come from different tables or passages of the source.

How the values were obtained:
Assay type in all cases: cell-based
[1] = system: E. cloacae 34654; assay: MIC determination, broth microdilution (CLSI); settings: Enterobacter cloacae, 34654, strain 3
[2] = system: S. aureus 133; assay: MIC determination, broth microdilution (CLSI)
[3] = system: S. maltophilia ICB7569; assay: MIC determination, broth microdilution (CLSI); settings: Stenotrophomonas maltophilia, ICB7569, strain 10
[4] = system: B. fragilis 6688; assay: MIC determination, broth microdilution (CLSI); settings: Bacteroides fragilis, 6688, strain 15; broth microdilution; read-out: MIC strain 15 (B. fragilis 6688)
[5] = system: K. pneumoniae 60; assay: MIC determination, broth microdilution (CLSI); settings: Klebsiella pneumoniae, 60, strain 2
[6] = system: M. morganii 126/3048; assay: MIC determination, broth microdilution (CLSI); settings: Morganella morganii, 126/3048, strain 5
[7] = system: C. perfringens DSM756; assay: microbe, parasite or virus in culture; settings: Clostridium perfringens, DSM756, read-out: MIC strain 16 (C. perfringens DSM756), strain 16; broth microdilution
[8] = system: P. aeruginosa PAO1; assay: MIC determination, broth microdilution (CLSI); settings: Pseudomonas aeruginosa, PAO1, strain 6
[9] = system: P. aeruginosa 2297 (AmpC wt); assay: MIC determination, broth microdilution (CLSI); settings: Pseudomonas aeruginosa, strain 7
[10] = system: C. freundii K21/3034; assay: MIC determination, broth microdilution (CLSI); settings: Citrobacter freundii, K21/3034, strain 4
[11] = system: H. influenzae ATCC 49247; assay: MIC determination, broth microdilution (CLSI); settings: Haemophilus influenzae, ATCC49247, strain 12; broth microdilution; read-out: MIC strain 12 (H. influenzae ATCC 49247)
[12] = system: E. coli J62-TEM-3; assay: MIC determination, broth microdilution (CLSI); settings: Escherichia coli, J62TEM3, read-out: MIC strain 18 (E. coli J62-TEM-3), strain 18; broth microdilution
[13] = system: S. pneumoniae 113; assay: MIC determination, broth microdilution (CLSI); settings: Streptococcus pneumoniae, 113, strain 13; broth microdilution; read-out: MIC strain 13 (S. pneumoniae 113)
[14] = system: P. aeruginosa 2297-con (AmpC derepressed); assay: MIC determination, broth microdilution (CLSI); settings: Pseudomonas aeruginosa, read-out: strain 8 MIC, strain 8
[15] = system: A. baumannii ATCC15308; assay: MIC determination, broth microdilution (CLSI); settings: Acinetobacter baumannii, ATCC15308, strain 9
[16] = system: E. coli ATCC25922; assay: MIC determination, broth microdilution (CLSI); settings: Escherichia coli, ATCC25922, strain 1
[17] = system: Bacteria; assay: MIC determination in combination with β-lactamase inhibitors (constant 4 μg/mL)
[18] = system: E. coli J62; assay: MIC determination, broth microdilution (CLSI); settings: Escherichia coli, J62, strain 17; broth microdilution; read-out: MIC strain 17 (E. coli J62)
[19] = Staphylococcus aureus, 133, strain 11, read-out: strain 11 MIC
[20] = Staphylococcus aureus, 133, strain 14, broth microdilution, read-out: MIC strain 14 (S. aureus 133)

| SMILES | MIC [1] [µg/mL] | MIC [2, 19] [µg/mL] | MIC [2, 20] [µg/mL] | MIC [3] [µg/mL] | MIC [4] [µg/mL] | MIC [5] [µg/mL] | MIC [6] [µg/mL] | MIC [7] [µg/mL] | MIC [8] [µg/mL] | MIC [9] [µg/mL] | MIC [10] [µg/mL] | MIC [11] [µg/mL] | MIC [12] [µg/mL] | MIC [13] [µg/mL] | MIC [14] [µg/mL] | MIC [15] [µg/mL] | MIC [16] [µg/mL] | MIC strain 19 (E. coli J62-TEM-3 + 4 μg/mL clavulanic acid) [17] [µg/mL] | MIC strain 20 (E. coli J62-TEM-3 + 4 μg/mL sulbactam) [17] [µg/mL] | MIC strain 21 (E. coli J62-TEM-3 + 4 μg/mL tazobactam) [17] [µg/mL] | other results |
| --- | --- | --- | --- | --- | --- | --- | --- | --- | --- | --- | --- | --- | --- | --- | --- | --- | --- | --- | --- | --- | --- |
| C[C@H]1[C@H](NC(=O)/C(=N\OCCOc2ccc(C(=N)N)cc2)c2nc(N)sc2Cl)C(=O)N1S(=O)(=O)O [Example 61, (2S,3S)-3-{[(2Z)-2-(2-Amino-5-chloro-1,3-thiazol-4-yl)-2-{[2-(4-carbamimidoylphenoxy)ethoxy]imino}acetyl]amino}-2-methyl-4-oxoazetidine-1-sulfonic acid] | 2 (≈ 3.66 µM) | ≤ 0.063 | 8 (≈ 14.7 µM) | 16 (≈ 29.3 µM) | 8 (≈ 14.7 µM) | 2 (≈ 3.66 µM) | 0.5 (≈ 0.916 µM) | 8 (≈ 14.7 µM) | 2 (≈ 3.66 µM) | 2 (≈ 3.66 µM) | 1 (≈ 1.83 µM) | 0.25 (≈ 0.458 µM) | 8 (≈ 14.7 µM) | ≤ 0.063 | 16 (≈ 29.3 µM) | 2 (≈ 3.66 µM) | 2 (≈ 3.66 µM) | 2 | 2 | 2 | MIC [18]: 2 µg/mL (≈ 3.66 µM) |
| CC1(C)[C@H](NC(=O)/C(=N\OCCOc2ccc(C(=N)NCC(=O)O)cc2)c2csc(N)n2)C(=O)N1OS(=O)(=O)O [Example 73, N-[{4-[2-({[(1Z)-1-(2-Amino-1,3-thiazol-4-yl)-2-{[(3S)-2,2-dimethyl-4-oxo-1-(sulfo-oxy)azetidin-3-yl]amino}-2-oxoethylidene]amino}oxy)ethoxy]phenyl}(imino)methyl]glycine] | 0.5 (≈ 0.834 µM) | ≤ 0.063 | 32 (≈ 53.4 µM) | 32 (≈ 53.4 µM) | 8 (≈ 13.3 µM) | 0.5 (≈ 0.834 µM) | 0.5 (≈ 0.834 µM) | 4 (≈ 6.67 µM) | 16 (≈ 26.7 µM) | 32 (≈ 53.4 µM) | 0.5 (≈ 0.834 µM) | 0.25 (≈ 0.417 µM) | 32 (≈ 53.4 µM) | ≤ 0.063 | 32 (≈ 53.4 µM) | 16 (≈ 26.7 µM) | 0.5 (≈ 0.834 µM) | 0.5 | 0.5 | 1 | MIC [18]: 1 µg/mL (≈ 1.67 µM) |
| Cc1sc(C(=N)N)nc1OCCO/N=C(\C(=O)N[C@@H]1C(=O)N(OS(=O)(=O)O)C1(C)C)c1csc(N)n1 [Example 74, (2Z)-2-(2-Amino-1,3-thiazol-4-yl)-2-({2-[(2-carbamimidoyl-5-methyl-1,3-thiazol-4-yl)oxy]ethoxy}imino)-N-[(3S)-2,2-dimethyl-4-oxo-1-(sulfooxy)azetidin-3-yl]ethanamide] | 4 (≈ 7.11 µM) | ≤ 0.063 | 32 (≈ 56.9 µM) | 16 (≈ 28.4 µM) | 2 (≈ 3.55 µM) | 2 (≈ 3.55 µM) | 1 (≈ 1.78 µM) | 2 (≈ 3.55 µM) | 16 (≈ 28.4 µM) | 32 (≈ 56.9 µM) | 1 (≈ 1.78 µM) | 0.25 (≈ 0.444 µM) | 16 (≈ 28.4 µM) | ≤ 0.063 | 32 (≈ 56.9 µM) | 2 (≈ 3.55 µM) | 1 (≈ 1.78 µM) | 1 | 1 | 2 | MIC [18]: 4 µg/mL (≈ 7.11 µM) |
| CC1(C)[C@H](NC(=O)/C(=N\OCCOc2ccc(C(=N)NCc3ccccn3)cc2)c2csc(N)n2)C(=O)N1OS(=O)(=O)O [Example 76, (2Z)-2-(2-Amino-1,3-thiazol-4-yl)-N-[(3S)-2,2-dimethyl-4-oxo-1-(sulfooxy)azetidin-3-yl]-2-[(2-{4-[N-(pyridin-2-ylmethyl)carbamimidoyl]phenoxy}ethoxy)imino]ethanamide] | 1 (≈ 1.58 µM) | ≤ 0.063 | 4 (≈ 6.32 µM) | 16 (≈ 25.3 µM) | 4 (≈ 6.32 µM) | 0.5 (≈ 0.79 µM) | 1 (≈ 1.58 µM) | 2 (≈ 3.16 µM) | 16 (≈ 25.3 µM) | 16 (≈ 25.3 µM) | 0.5 (≈ 0.79 µM) | 0.25 (≈ 0.395 µM) | 8 (≈ 12.6 µM) | ≤ 0.063 | 32 (≈ 50.6 µM) | 4 (≈ 6.32 µM) | 0.5 (≈ 0.79 µM) | 0.5 | 0.5 | 0.5 | MIC [18]: 0.5 µg/mL (≈ 0.79 µM) |
